Source: PMC7473865, “Repertoire-scale determination of class II MHC peptide binding via yeast display improves antigen prediction” (Nature Communications, 2020)
pIC50: −log10 of the molar value. Read-outs that look alike come from different tables or passages of the source. Ends that are not written are not given here. Peptide text beside a SMILES is read from it.

Biological target: T1, recombinant HLA-DR401 (HLA-DRA1*01:01, HLA-DRB1*04:01) (Homo sapiens, UniProt P01903+P01911, A100K/A169T/F76Y/I96L/K127E/L162R/M171V/N62H/P40V/Q125Y/R42H/S133A/S149N/S66Y/V115G/V209L/W38E)
T1 construct: poly-histidine (C); made in house; host or cells: High Five (Hi5) insect cells, baculovirus (pAcGP67a)
Experiment: biochemical
Assay type: binding

[1] = fluorescence polarization peptide competition, HLA-DR401, sheet Fig7, read-out: Measured IC50
[2] = HLA-DR401, fluorescence polarization competition, Fig3B, read-out: Measured IC50

| Molecule | pIC50 (read-out: Measured IC50) | pIC50 | other results |
| --- | --- | --- | --- |
| CC[C@H](C)[C@H](NC(=O)[C@H](C)NC(=O)[C@H](CC(=O)O)NC(=O)[C@H](Cc1ccc(O)cc1)NC(=O)[C@H](CC(C)C)NC(=O)[C@@H]1CCCN1C(=O)[C@@H](NC(=O)CNC(=O)[C@@H](N)CCC(=O)O)[C@@H](C)CC)C(=O)N[C@@H](CCCCN)C(=O)N[C@@H](CS)C(=O)N[C@@H](CCSC)C(=O)N[C@@H](CCCNC(=N)N)C(=O)N[C@H](C(=O)N[C@@H](Cc1ccccc1)C(=O)N[C@@H](Cc1ccccc1)C(=O)NCC(=O)N[C@@H](Cc1c[nH]c2ccccc12)C(=O)N[C@@H](CCCCN)C(=O)N[C@@H](CCC(=O)O)C(=O)O)[C@@H](C)O | – | – | pIC50 [1]: 7.21 |
| CSCC[C@H](NC(=O)[C@H](Cc1ccc(O)cc1)NC(=O)CNC(=O)[C@@H](N)CCCCN)C(=O)N[C@@H](Cc1ccccc1)C(=O)N[C@@H](CCC(=O)O)C(=O)N[C@@H](CO)C(=O)N[C@@H](CCCCN)C(=O)N[C@@H](CO)C(=O)N[C@@H](CCSC)C(=O)N[C@@H](CCCCN)C(=O)N[C@@H](CC(C)C)C(=O)N[C@@H](CCCNC(=N)N)C(=O)N[C@H](C(=O)N[C@@H](CCC(N)=O)C(=O)O)[C@@H](C)O | 4.41 | – | – |
| CC(C)C[C@H](N)C(=O)N[C@@H](Cc1ccccc1)C(=O)N[C@@H](CCC(=O)O)C(=O)N[C@@H](CCCCN)C(=O)N[C@@H](Cc1ccccc1)C(=O)N[C@@H](Cc1ccccc1)C(=O)N1CCC[C@H]1C(=O)N[C@@H](CO)C(=O)N[C@@H](CO)C(=O)N[C@@H](CO)C(=O)N[C@@H](Cc1ccc(O)cc1)C(=O)N[C@@H](CCCNC(=N)N)C(=O)N[C@@H](CCCNC(=N)N)C(=O)N1CCC[C@H]1C(=O)N[C@H](C(=O)O)C(C)C | < 4.30 | – | pIC50 [2]: < 4.30 |
| CC[C@H](C)[C@H](NC(=O)CNC(=O)[C@@H](NC(=O)[C@H](CCSC)NC(=O)CNC(=O)[C@H](CCSC)NC(=O)[C@@H](NC(=O)[C@H](CC(N)=O)NC(=O)[C@H](CC(=O)O)NC(=O)[C@@H](NC(=O)[C@@H]1CCCN1C(=O)[C@H](CCC(=O)O)NC(=O)[C@@H](NC(=O)CNC(=O)[C@H](Cc1c[nH]c2ccccc12)NC(=O)[C@H](CC(N)=O)NC(=O)[C@H](CCC(N)=O)NC(=O)[C@H](Cc1ccccc1)NC(=O)[C@@H](N)CC(C)C)C(C)C)[C@@H](C)CC)C(C)C)[C@@H](C)CC)C(=O)N[C@@H](CC(C)C)C(=O)O | – | – | pIC50 [1]: 5.60 |
| CC[C@H](C)[C@H](NC(=O)[C@H](CCCCN)NC(=O)[C@H](CO)NC(=O)[C@@H](NC(=O)CNC(=O)[C@H](CC(N)=O)NC(=O)[C@@H](NC(=O)[C@H](CCCNC(=N)N)NC(=O)[C@@H](NC(=O)[C@H](Cc1ccc(O)cc1)NC(=O)[C@H](CC(C)C)NC(=O)[C@H](Cc1ccccc1)NC(=O)[C@@H](N)CCSC)C(C)C)[C@@H](C)O)[C@@H](C)O)C(=O)N[C@@H](CCCCN)C(=O)N[C@@H](CCSC)C(=O)N[C@@H](CCCCN)C(=O)N[C@@H](Cc1c[nH]c2ccccc12)C(=O)NCC(=O)N[C@@H](CCSC)C(=O)N[C@@H](CCC(=O)O)C(=O)O | – | – | pIC50 [1]: 5.21 |
| CSCC[C@H](NC(=O)[C@H](CO)NC(=O)[C@H](Cc1ccccc1)NC(=O)[C@H](CC(N)=O)NC(=O)[C@H](C)NC(=O)[C@@H](NC(=O)[C@H](Cc1ccccc1)NC(=O)CNC(=O)[C@H](Cc1ccc(O)cc1)NC(=O)[C@H](CCCNC(=N)N)NC(=O)[C@H](Cc1ccc(O)cc1)NC(=O)[C@H](Cc1ccccc1)NC(=O)[C@H](Cc1ccccc1)NC(=O)[C@@H](N)CO)C(C)C)C(=O)N[C@@H](CCC(=O)O)C(=O)O | < 4.30 | – | pIC50 [2]: < 4.30 |
| CSCC[C@H](NC(=O)[C@H](CCCNC(=N)N)NC(=O)[C@@H](N)CO)C(=O)N[C@@H](CCC(N)=O)C(=O)N[C@@H](Cc1ccccc1)C(=O)N[C@@H](CO)C(=O)N[C@@H](CO)C(=O)N[C@@H](Cc1ccccc1)C(=O)N[C@H](C(=O)N[C@H](C(=O)N[C@@H](CC(N)=O)C(=O)N[C@H](C(=O)N[C@@H](CCCNC(=N)N)C(=O)NCC(=O)N[C@@H](CO)C(=O)O)C(C)C)C(C)C)[C@@H](C)O | 5.47 | – | – |
| CSCC[C@H](NC(=O)[C@H](CO)NC(=O)[C@@H](NC(=O)[C@H](Cc1ccccc1)NC(=O)[C@H](CC(N)=O)NC(=O)[C@@H](NC(=O)[C@@H](N)C(C)C)C(C)C)C(C)C)C(=O)N[C@@H](CCC(=O)O)C(=O)N[C@@H](Cc1ccccc1)C(=O)N[C@@H](CO)C(=O)N[C@@H](CC(C)C)C(=O)N[C@H](C(=O)N[C@@H](CC(=O)O)C(=O)N1CCC[C@H]1C(=O)N[C@@H](CCCNC(=N)N)C(=O)O)[C@@H](C)O | 5.10 | – | – |
| CC(C)C[C@H](NC(=O)[C@H](C)NC(=O)[C@H](C)N)C(=O)N[C@@H](CC(N)=O)C(=O)N[C@H](C(=O)N[C@@H](CCC(=O)O)C(=O)N[C@@H](CCCNC(=N)N)C(=O)N[C@H](C(=O)N[C@@H](CS)C(=O)N[C@@H](Cc1c[nH]cn1)C(=O)N[C@@H](CS)C(=O)N[C@@H](Cc1c[nH]c2ccccc12)C(=O)N[C@@H](CCC(=O)O)C(=O)N[C@@H](CCC(=O)O)C(=O)NCC(=O)O)[C@@H](C)O)C(C)C (H-AALNVERTCHCWEEG-OH) | – | 7.48 | – |
| CC(C)C[C@H](NC(=O)[C@H](C)NC(=O)[C@H](C)N)C(=O)N[C@@H](CCCNC(=N)N)C(=O)N[C@@H](CCC(=O)O)C(=O)N[C@@H](CCC(=O)O)C(=O)N[C@@H](Cc1c[nH]cn1)C(=O)N[C@H](C(=O)N[C@@H](CS)C(=O)N[C@@H](CCCCN)C(=O)N[C@@H](CS)C(=O)N[C@@H](Cc1c[nH]c2ccccc12)C(=O)N[C@@H](CCC(=O)O)C(=O)N[C@@H](CCC(=O)O)C(=O)NCC(=O)O)[C@@H](C)O (H-AALREEHTCKCWEEG-OH) | – | 7.43 | – |
| CC(C)C[C@H](NC(=O)[C@H](C)NC(=O)[C@H](C)N)C(=O)N[C@@H](CO)C(=O)N[C@@H](CC(C)C)C(=O)N[C@@H](CCC(=O)O)C(=O)N[C@@H](CCCNC(=N)N)C(=O)N[C@@H](CO)C(=O)N[C@@H](CS)C(=O)N[C@@H](CCCCN)C(=O)N[C@@H](CS)C(=O)N[C@@H](Cc1c[nH]c2ccccc12)C(=O)N[C@@H](CCC(=O)O)C(=O)N[C@@H](CCC(=O)O)C(=O)NCC(=O)O (H-AALSLERSCKCWEEG-OH) | – | 7.60 | – |
| CC(C)C[C@H](NC(=O)[C@H](C)NC(=O)[C@H](C)N)C(=O)N[C@H](C(=O)N[C@@H](CC(=O)O)C(=O)N[C@@H](CC(=O)O)C(=O)N1CCC[C@H]1C(=O)N[C@H](C(=O)N[C@@H](CS)C(=O)N[C@@H](CCCNC(=N)N)C(=O)N[C@@H](CS)C(=O)N[C@@H](Cc1c[nH]c2ccccc12)C(=O)N[C@@H](CCC(=O)O)C(=O)N[C@@H](CCC(=O)O)C(=O)NCC(=O)O)[C@@H](C)O)C(C)C (H-AALVDDPTCRCWEEG-OH) | – | 7.53 | – |
| CC(C)C[C@H](NC(=O)CNC(=O)[C@H](CCCNC(=N)N)NC(=O)[C@H](CCC(=O)O)NC(=O)[C@H](CC(C)C)NC(=O)[C@@H](NC(=O)[C@H](Cc1c[nH]c2ccccc12)NC(=O)[C@H](C)NC(=O)[C@H](C)N)C(C)C)C(=O)N[C@@H](CS)C(=O)N[C@@H](CS)C(=O)N[C@@H](Cc1c[nH]c2ccccc12)C(=O)N[C@@H](CCC(=O)O)C(=O)N[C@@H](CCC(=O)O)C(=O)NCC(=O)O (H-AAWVLERGLCCWEEG-OH) | – | – | pIC50 (estimated from two-point fluorescence polarization competition assay binding plots, HLA-DR401, N = 3 technical replicates per condition, read-out: IC50 (estimated)): 7.47 |
| CC(C)C[C@H](NC(=O)[C@H](CCC(=O)O)NC(=O)[C@H](CC(N)=O)NC(=O)[C@H](CC(C)C)NC(=O)[C@H](CCC(N)=O)NC(=O)[C@@H](NC(=O)[C@H](CO)NC(=O)[C@H](CO)NC(=O)[C@H](CS)NC(=O)[C@H](CO)NC(=O)[C@H](CC(C)C)NC(=O)[C@H](CCCNC(=N)N)NC(=O)[C@H](Cc1ccccc1)NC(=O)[C@H](CC(C)C)NC(=O)[C@H](CCC(N)=O)NC(=O)[C@@H]1CCCN1C(=O)[C@H](CC(C)C)NC(=O)[C@H](CC(=O)O)NC(=O)[C@H](CS)NC(=O)[C@@H](N)Cc1ccc(O)cc1)[C@@H](C)O)C(=O)O (H-YCDLPQLFRLSCSSTQLNEL-OH) | – | – | pIC50 [1]: 7.41 |
| AAANMDTSLPAWEEG | – | 6.75 | – |
